The conditions of data set [1]: vis-à-vis FAPI-04; cited from earlier work.
The test system of data set [2] is FAP. Particulars: cited from earlier work.
In data set [3] the target is T1, FAP (Homo sapiens, UniProt Q12884).
T1 construct: expressed in transfected cells; host or cells: HT-1080.hFAP
T1 sequence (Q12884 1-760): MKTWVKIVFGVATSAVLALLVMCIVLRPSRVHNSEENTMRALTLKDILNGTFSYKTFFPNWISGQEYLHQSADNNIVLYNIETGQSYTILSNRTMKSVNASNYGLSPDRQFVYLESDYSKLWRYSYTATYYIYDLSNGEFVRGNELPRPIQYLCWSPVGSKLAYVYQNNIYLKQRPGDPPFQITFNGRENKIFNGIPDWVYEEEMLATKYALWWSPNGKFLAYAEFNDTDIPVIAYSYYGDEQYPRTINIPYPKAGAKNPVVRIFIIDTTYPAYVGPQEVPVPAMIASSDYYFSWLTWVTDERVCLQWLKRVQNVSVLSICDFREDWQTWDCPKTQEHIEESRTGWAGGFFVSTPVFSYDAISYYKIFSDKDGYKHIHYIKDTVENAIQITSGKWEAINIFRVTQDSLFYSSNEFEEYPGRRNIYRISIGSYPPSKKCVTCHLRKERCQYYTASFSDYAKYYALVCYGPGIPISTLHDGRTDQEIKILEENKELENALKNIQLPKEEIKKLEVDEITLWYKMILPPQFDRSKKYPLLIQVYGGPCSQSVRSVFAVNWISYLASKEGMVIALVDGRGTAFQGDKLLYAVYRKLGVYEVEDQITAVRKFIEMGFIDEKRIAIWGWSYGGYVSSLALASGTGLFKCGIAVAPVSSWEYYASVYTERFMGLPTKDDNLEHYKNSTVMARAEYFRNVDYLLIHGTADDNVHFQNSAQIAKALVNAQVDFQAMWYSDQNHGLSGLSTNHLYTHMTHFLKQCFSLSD
In words: Competitive binding assay against [^111In]In-FAPI-46 in HT-1080.hFAP cells. Particulars: 37° C., 1 h. On the procedure:
The U-87 MG glioblastoma was cultured at 37° C. and 5% CO2 in Dulbecco's Modified Eagle Medium (DMEM) supplemented with 10% (v/v) fetal calf serum. HT-1080.hFAP cells were kept in culture in DMEM medium supplemented with fetal bovine serum (10%, FBS) and antibiotic antimycotic (1%, AA) at 37° C. and 5% CO2. For passaging, cells were detached using Trypsin-EDTA 0.05% when reaching 90% confluence and re-seeded at a dilution of 1:4.
Competition binding experiments were conducted by incubation of the [^111In]In-FAPI-46 radioligand with increasing concentrations of eFAP compound in HT-1080.hFAP cells at 37° C. for 1 h. Cells were then washed three times with binding buffer and lysed. The cell-associated radioactivity was measured in a γ-counter. The IC50 values were calculated by fitting the data by non-linear regression using GraphPad Prism.
Results with FABI-46 obtained in the same assay is included for comparison.

For data set [4], the target named is T2, mouse FAP (mFAP) (Mus musculus, UniProt P97321).
T2 sequence (P97321 26-761 limits assumed): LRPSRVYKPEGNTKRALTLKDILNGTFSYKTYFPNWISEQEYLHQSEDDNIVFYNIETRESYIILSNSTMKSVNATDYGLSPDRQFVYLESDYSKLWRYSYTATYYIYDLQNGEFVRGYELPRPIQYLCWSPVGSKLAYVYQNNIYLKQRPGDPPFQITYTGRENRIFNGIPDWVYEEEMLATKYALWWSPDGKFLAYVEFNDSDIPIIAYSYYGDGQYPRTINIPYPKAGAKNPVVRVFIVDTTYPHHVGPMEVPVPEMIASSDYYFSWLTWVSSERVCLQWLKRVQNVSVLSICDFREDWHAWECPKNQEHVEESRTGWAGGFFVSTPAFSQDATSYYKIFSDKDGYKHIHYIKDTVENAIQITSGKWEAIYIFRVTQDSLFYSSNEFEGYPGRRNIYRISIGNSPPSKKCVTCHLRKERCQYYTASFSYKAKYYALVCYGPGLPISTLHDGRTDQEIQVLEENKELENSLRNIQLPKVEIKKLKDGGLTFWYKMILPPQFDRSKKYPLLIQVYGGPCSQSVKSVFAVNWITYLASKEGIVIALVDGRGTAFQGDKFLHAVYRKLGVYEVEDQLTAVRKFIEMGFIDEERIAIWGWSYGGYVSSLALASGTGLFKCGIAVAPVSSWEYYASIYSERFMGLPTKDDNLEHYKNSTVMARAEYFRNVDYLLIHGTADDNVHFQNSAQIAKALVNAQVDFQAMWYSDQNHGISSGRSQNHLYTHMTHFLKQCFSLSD
The data set is described as follows: In vitro inhibition assay on mouse FAP (Z-GP-AMC substrate). Particulars: 20 μM Z-GP-AMC, 20 nM FAP, pH 7.4, room temperature. It counts as biochemical. On the procedure:
Enzymatic activity of human FAP (hFAP) and mouse FAP (mFAP) on the Z-GP-AMC substrate was measured at room temperature on a Hidex microplate reader by monitoring the fluorescence at an excitation wavelength of 360 nm and an emission wavelength of 465 nm. The reaction mixture contained 20 μM substrate, 20 nM FAP, assay buffer (50 mM Tris, 100 mM NaCl, 1 mM EDTA, pH 7.4) and tested compound (serial dilution from 10-6 to 10^−12) in a total volume of 50 μL.
Results with FAPI-46 obtained in the same assay is included for comparison.

The test system of data set [5] is U-87 tumor. The data set is described as follows: Near-infrared fluorescence imaging of U-87 tumor bearing mice. Particulars: 2 nmol i.v., imaging 1 h, excised tumors 2.5 h. It counts as in vivo, mouse. The text has this: Six-week-old male Balb/c nu/nu-specific and opportunistic pathogen-tree (SOPF) mice were housed in individually ventilated cages, with 4 mice per cage. Upon arrival, mice were acclimated for 1 week, with access to food and water ad libitum. Mice were subcutaneously inoculated on the right shoulder with U-87 or HT-1080.hFAP cells (1×10^6 cells). Xenografts were allowed to grow until they reached an appropriate size at the start of the studies. All animal experiments were approved by the Animal Welfare Committee of the Erasmus MC and were conducted in agreement with institutional guidelines (license number: AVD101002017867).
Evaluation of targeting performance of eFAP-17 in near-infrared fluorescence imaging of U-87 tumor bearing mice after intravenous injection of 2 nmol of the probe are given in FIG. 9 showing A) NIRF imaging of U-87 tumor bearing mice at 1 h after intravenous injection of 2 nmol of CW800 (left, negative control) or eFAP-17 (right) and B) image of excised tumors 2.5 h post administration of CW800 (left) or eFAP-17 (right).

For orientation: IC50 means the concentration at which inhibition is half-maximal. Higher therefore signals weaker potency in that assay.

Consider `CN(CCCN1CCN(C(=O)CN2CCN(CC(=O)O)CCN(CC(=O)O)CCN(CC(=O)O)CC2)CC1)c1ccc2nccc(C(=O)NCC(=O)N3CC(F)(F)C[C@H]3C#N)c2c1` [FAPI-46], for which the “tumor-to-organ ratios (in words)” value in data set [1] is “improved tumor-to-organ ratios”.
On to `N#C[C@@H]1CC(F)(F)CN1C(=O)CNC(=O)c1ccnc2ccccc12` [UAMC-1110], for which the “affinity to FAP (in words)” value in data set [2] is “nanomolar affinity to FAP”.
Consider `N#C[C@@H]1CC(F)(F)CN1C(=O)CNC(=O)c1ccnc2c(OCCCNC(=O)CN3CCN(CC(=O)O)CCN(CC(=O)O)CCN(CC(=O)O)CC3)cccc12` [eFAP-6, (S)-2,2′,2″-(10-(2-((3-((4-((2-(2-Cyano-4,4-difluoropyrrolidin-1-yl)-2-oxoethyl)carbamoyl)quinolin-8-yl)oxy)propyl)amino)-2-oxoethyl)-1,4,7,10-tetraazacyclododecane-1,4,7-triyl)triacetic acid], for which the “binding affinity for FAP (in words)” value in data set [3] is “low nano-molar binding affinity for FAP”.
Regarding `CC1(C)C(/C=C/C2=C(Oc3ccc(S(=O)(=O)O)cc3)C(=C/C=C3/N(CCCCCC(=O)NCCCOc4cccc5c(C(=O)NCC(=O)N6CC(F)(F)C[C@H]6C#N)ccnc45)c4ccc(S(=O)(=O)O)cc4C3(C)C)/CCC2)=[N+](CCCCS(=O)(=O)[O-])c2ccc(S(=O)(=O)O)cc21` [eFAP-17, 4-(2-((E)-2-((E)-3-(2-((E)-1-(6-((3-((4-((2-((S)-2-Cyano-4,4-difluoropyrrolidin-1-yl)-2-oxoethyl)carbamoyl)quinolin-8-yl)oxy)propyl)amino)-6-oxohexyl)-3,3-dimethyl-5-sulfoindolin-2-ylidene)ethylidene)-2-(4-sulfophenoxy)cyclohex-1-en-1-yl)vinyl)-3,3-dimethyl-5-sulfo-3H-indol-1-ium-1-yl)butane-1-sulfonate], the IC50 in data set [4] was determined as 5 ± 0.2 nM. In data set [5], the “accumulation in healthy tissues, NIRF imaging (in words)” value is “low accumulation in healthy tissues” and the “tumor uptake, NIRF imaging (in words)” value is reported as “high uptake in the FAP overexpressing tumor”.
